Key:
[1] = test system: MAPK14 (mitogen-activated protein kinase 14); assay: Gene expression experiment (real-time PCR) in SH-SY5Y cells: MAPK14; format: cell-based; settings: 24 h
Description: (§1) SH-SY5Y cells were seeded in 100 mm-cell dishes (BD Biocoat) at concentrations of 3.7×10^5 cells/mL (10 mL/dish) and cultured for 24 h at 37° C. and 5% CO2. Culture medium used was F12/DMEM (Gibco) supplemented with 1% non-essential amino acids (Gibco), 15% FBS (Bio West), and 1% penicillin/streptomycin (Lonza). After 24 h, the culture medium was completely removed with an aspirator, 10 mL of culture medium Opti-MEM(Gibco) was added to each dish, and the cells were cultured for 24 h at 37° C. and 5% CO2. RNA was extracted from the culture cells and analyzed for the expression of genes described below by real-time PCR (designated as “Control” in FIGS. 2 to 8).
(§2) RNA extraction was performed using ISOGEN Reagent (Nippon Gene Co., Ltd.) in accordance with the protocol recommended by Nippo n Gene Co., Ltd. (see URL: https://www.nippongene.com/siyaku/product/extraction/tds/tds_isogen-rna-dna-protein.pdf). Real-time PCR was performed according to the protocol recommended by Thermo Fisher Scientific using a reagent kit for TaqMan Real-Time PCR (Thermo Fisher Scientific) (see URL: https://assets.thermofisher.com/TFS-Assets/LSG/manuals/4304449_TaqManPCRMM_UG.pdf).
(§3) 24 h after seeding 100 mm-cell dishes (BD Biocoat) with SH-SY5Y cells, the culture medium was completely removed with an aspirator, amyloid β protein (Beta-Amyloid 1-42, AnaSpec) was mixed with Opti-MEM (Gibco) so that the final concentration was 5 μM, 10 mL of the mixture was added to each dish, the cells were cultured for 24 h at 37° C. and 5% CO2, and RNA was extracted. Except for performing the procedure described above, gene expression was analyzed as described above (designated as “Aβ” in FIGS. 2 to 8).
(§4) 24 h after seeding 100 mm-cell dishes (BD Biocoat) with SH-SY5Y cells, the culture medium was completely removed with an aspirator, Sample 1 was mixed with culture medium Opti-MEM(Gibco) so that the final concentration was 12.56 μM, 9,990 μL of the mixture was added to each dish and allowed to stand for 10 min, amyloid β protein (Beta-Amyloid 1-42, AnaSpec) was mixed with Opti-MEM (Gibco) so that the final concentration was […], 10 μL of the mixture was added to each well, the cells were cultured for 24 h at 37° C. and 5% CO2, and RNA was extracted. Except for performing the procedure described above, Gene expression was analyzed as described above (designated as “Aβ+M3,5G” in FIGS. 2 to 8).
(§5) Except that Sample 2 was used instead of Sample 1, gene expression was analyzed as described above (designated as “Aβ+M” in FIGS. 2 to 8).
(§6) Except that Sample 3 was used instead of Sample 1, gene expression was analyzed as described above (designated as “Aβ+M3G” in FIGS. 2 to 8). […]

[2] = test system: MAPK8 (mitogen-activated protein kinase 8); assay: Gene expression experiment (real-time PCR) in SH-SY5Y cells: MAPK8; format: cell-based; settings: 24 h
Description: as §1, §2, §3, §4, §5, §6

[3] = test system: PI3KCA (phosphatidylinositol-4,5-bisphosphate 3-kinase catalyst subunit α); assay: Gene expression experiment (real-time PCR) in SH-SY5Y cells: PI3KCA; format: cell-based; settings: for expression of PI3KCA: 24 h
Description: as §1, §2, §3, §4, §5
(§7) Except that Sample 3 was used instead of Sample 1, gene expression was analyzed as described above (designated as “Aβ+M3G” in FIGS. 2 to 8).
(§8) 24 h after seeding 100 mm-cell dishes (BD Biocoat) with SH-SY5Y cells, the culture medium was completely removed with an aspirator, 10 mL of culture medium Opti-MEM(Gibco) mixed with Sample 1 was added to each dish, the cells were cultured for 24 h at 37° C. and 5% CO2, and RNA was extracted. Except for performing the procedure described above, gene expression was analyzed as described above (designated as “M3,5G” in FIGS. 2 to 8).

[4] = test system: AKT1 (AKT serine/threonine kinase 1); assay: Gene expression experiment (real-time PCR) in SH-SY5Y cells: AKT1; format: cell-based; settings: for expression of AKT1: 24 h
Description: as §1, §2, §3, §4, §5, §7, §8

[5] = test system: PARP1 (poly(ADP-ribose) polymerase 1); assay: Gene expression experiment (real-time PCR) in SH-SY5Y cells: PARP1; format: cell-based; settings: 24 h
Description: as §1, §2, §3, §4, §5, §6

[6] = test system: senescence-accelerated mice (SAMP8); assay: Animal experiment: Morris water maze test (platform test, probe test); format: in vivo; settings: SAMP8, oral, 30 days, 2.17 mg malvidin-3,5-diglucoside/kg/day
Description: Mice and administration regimens used in the experiment are as described below. Breeding conditions are common to all groups.
Compound (M3,5G)-treated (SAMP8) group: Sample 5 was orally administered to 10 senescence-accelerated mice (SAMP8) (16 weeks old, weighing 28-30 g, Japan SLC, Inc.) for a period of 30 days at a daily dose of 2.17 mg of malvidin-3,5-diglucoside per kg of mouse body weight (designated as “Senescence-accelerated mice+Compound (M3,5G)” in FIGS. 11 to 13).
Extract-treated (SAMP8) group: Sample 4 was orally administered to 10 senescence-accelerated mice (SAMP8) (16 weeks old, weighing 28-30 g, Japan SLC, Inc.) for a period of 30 days at a daily dose of 25 mg of extract powder (2.17 mg of malvidin-3,5-diglucoside in […]) per kg of mouse body weight (designated as “Senescence-accelerated mice+Extract” in FIGS. 11 to 13). […]
Mice were released into the pool and the time taken for the mice to arrive at the platform was measured. […]
On the last day of the test, the platform was removed from the pool and the mice were again released into the pool. The number of times the mouse crossed the former platform location was counted and the time the mouse spent on the former platform location was measured.

[7] = 12.56 μM, amyloid β protein-treated cells, compared to “Aβ”
[8] = Sample 1 alone, no amyloid β, compared to “Control”
[9] = 12.56 μM, amyloid β protein-treated cells, compared to “Control”
[10] = amyloid β protein-treated cells, 12.56 μM, ranked against malvidin and malvidin-3-glucoside

**Q.** Which results are given for COc1cc(-c2[o+]c3cc(O)cc(OC4OC(CO)C(O)C(O)C4O)c3cc2OC2OC(CO)C(O)C(O)C2O)cc(OC)c1O (stereo not shown) [M3,5G, Malvidin-3,5-diglucoside chloride]?
**A.** expression of MAPK14 [1, 7]: significantly high; expression of MAPK14 [1, 8]: significantly increased; expression of MAPK8 [2, 7]: significantly high; expression of MAPK8 [2, 9]: significantly high; expression of MAPK8 [2, 8]: significantly increased; expression of PI3KCA [3, 7]: significantly high; expression of PI3KCA [3, 9]: significantly high; expression of PI3KCA [3, 8]: significantly increased; activity in increasing the expression of PI3KCA [3, 10]: highest activity; expression of AKT1 [4, 7]: significantly high; expression of AKT1 [4, 9]: significantly high; expression of AKT1 [4, 8]: significantly increased; activity in increasing the expression of AKT1 [4, 10]: highest activity; expression of PARP1 [5, 7]: significantly high; expression of PARP1 [5, 8]: comparable; learn and memory ability of animals [6]: improvements
